This is an account of results in patent US9193717B2, “Mineralocorticoid receptor antagonists” (Merck Sharp & Dohme Corp., priority 2011, dated 2015).

In the assay the target is T1, full-length human Mineralocorticoid Receptor (MR) (Homo sapiens, UniProt P08235).
T1 construct: full-length human Mineralocorticoid Receptor (MR); host or cells: PathHunter CHO-K1 cells
T1 sequence (P08235 1-984): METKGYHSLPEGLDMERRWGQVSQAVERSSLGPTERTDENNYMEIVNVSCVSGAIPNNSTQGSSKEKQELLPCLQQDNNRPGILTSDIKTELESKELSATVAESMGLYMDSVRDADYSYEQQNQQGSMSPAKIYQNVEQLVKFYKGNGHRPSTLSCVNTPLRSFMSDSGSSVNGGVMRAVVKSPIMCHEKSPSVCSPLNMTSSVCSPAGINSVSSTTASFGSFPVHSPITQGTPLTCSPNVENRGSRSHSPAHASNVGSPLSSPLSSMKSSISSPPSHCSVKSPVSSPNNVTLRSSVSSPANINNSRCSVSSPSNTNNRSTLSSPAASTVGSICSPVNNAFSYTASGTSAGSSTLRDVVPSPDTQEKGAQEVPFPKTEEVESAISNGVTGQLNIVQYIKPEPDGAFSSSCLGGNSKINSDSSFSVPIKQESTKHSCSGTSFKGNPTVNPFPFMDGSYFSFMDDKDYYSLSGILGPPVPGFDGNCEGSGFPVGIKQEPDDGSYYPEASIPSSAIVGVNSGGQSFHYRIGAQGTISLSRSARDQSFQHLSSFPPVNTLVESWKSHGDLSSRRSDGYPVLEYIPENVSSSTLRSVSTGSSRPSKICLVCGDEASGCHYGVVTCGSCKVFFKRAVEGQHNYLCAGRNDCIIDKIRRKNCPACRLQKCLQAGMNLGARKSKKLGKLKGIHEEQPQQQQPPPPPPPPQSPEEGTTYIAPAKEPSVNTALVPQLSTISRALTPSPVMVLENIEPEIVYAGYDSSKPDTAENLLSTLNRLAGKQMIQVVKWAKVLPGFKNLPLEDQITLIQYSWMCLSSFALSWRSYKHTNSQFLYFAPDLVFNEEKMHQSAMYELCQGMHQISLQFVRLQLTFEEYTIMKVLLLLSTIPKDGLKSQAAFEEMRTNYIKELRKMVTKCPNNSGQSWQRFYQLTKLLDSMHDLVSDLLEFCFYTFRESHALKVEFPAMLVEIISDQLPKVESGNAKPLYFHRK
The experiment in a line: human MR NH Pro assay (PathHunter Protein:Protein interaction assay, MR antagonism). The note with it: PathHunter CHO-K1 cells that overexpress human MR; aldosterone (0.3 nM), 6 hours at 37° C.; antagonist mode; read-out: IC50 rating. In kind it is cell-based. Here is the method:
The activity of the compounds of the present invention regarding mineralocorticoid receptor antagonism was evaluated using the following assay.
Assessment of Mr Potency in HMR NH Pro Assay
The human MR NH Pro assay is a commercially available PathHunter™ Protein:Protein interaction assay (DiscoveRx; http://www.discoverx.com/nhrs/prod-nhrs.php) that measures the ability of compounds to antagonize full-length human Mineralocorticoid Receptor (MR) binding to a coactivator peptide. PathHunter™ CHO—K1 cells that overexpress human MR (Cat #93-0456C2, Lot No: 09B0913) were cultured in growth media (F12K w/Glutamine and phenol red (Gibco 11765-047) supplemented with 10% HI FBS (Gibco 16000); 0.25 mg/ml Hygromycin in PBS (Invitrogen 10687-010, 50 mg/ml); 100 I.U./mL and 100 μg/mL Pen/Strep (Gibco 15140-122); 0.6 mg/mL Geneticin).
Compounds were assessed for MR antagonist activity by incubating the cells with a titrating dose of compound in F12K w/Glutamine and phenol red culture media (Invitrogen 11765-047) supplemented with 1% Charcoal/Dextran Treated FBS (Hyclone #SH30068.01) and aldosterone (0.3 nM) for 6 hours at 37° C. […] Growth Media: • F12K w/Glutamine and phenol red (Gibco 11765-047) • 10% HI FBS (Gibco 16000) • 0.25 mg/ml Hygromycin in PBS (Invitrogen 10687-010, 50 mg/ml) • 100 I.U./mL and 100 μg/mL Pen/Strep (Gibco 15140-122) • 0.6 mg/mL Geneticin (Gibco 10131, 50 mg/ml) • 2. Assay Media: • F12K w/Glutamine and phenol red (Invitrogen 11765-047) • 1% Charcoal/Dextran Treated FBS (Hyclone #SH30068.01) • 3. 3× PathHunter Detection Reagents (Cat#93-0001) (need ˜6 ml/plate). […] Control Agonist:Aldosterone:Sigma cat# A9477 • Prepare stock solution-10 μM in DMSO kept at −20° C. • for assay, dilute in assay media to 1.8 or 6 nM (6× of final concentration=about 0.3 nM to about 1.0 nM) • 5. Cell line: PathHunter CHO—K1 MR cells Cat #93-0456C2, Lot No: 09B0913, from operation liquid nitrogen stock. • 6. Control Antagonist:Spironolactone:Sigma #S-3378 and Eplerenone Sigma #107724-20-9 (10 mM stock concentration also prepared in DMSO and stored at −20° C.). • Methods: • Assay Set up and Calculations: • 1. Cells were grown in F12+FBS+Hygromycin+pen/strep+Genetin • 2. Cells were collected with 0.05% trypsin and the cell suspension was spun and resuspended in a volume of F12+1.5% CD-FBS and counted. • 3. The cells were resuspended to 4×10^5 cells/mL. • 4. Cells were (25 μL/well) added to the wells of a 384 well plate. • 5. The plate was then incubated at 37° C. over night in a humidified incubator with 5% CO2. • 6. Test compounds were titrated starting at 4.4 mM, 10-point titration in 1:3 dilution. • 7. Aldosterone was diluted in assay media to 1.8 nM or 6 nM from 10 μM stock (final concentration to be about 0.3 nM to about 1.0 nM). • Protocol for 384 Well Plate Format: 6 Hr Treatment: • 1. Plated 10K exponentially growing cells/well (25 μL) resuspended in assay media to each well using the Multidrop (Thermo Electron) (use white wall, clear bottom assay plates (Costar #3570) and incubate overnight at 37° C., 5% CO2. • 2. 0.25 μL 120× test compound (final DMSO concentration should be <1%) was added to each well n=2, 10 point titrations starting at 36.7 μM final concentration. • 3. 5 μL 6× agonist (final aldosterone concentration should be about 0.3 nM to about 1.0 nM) was added to all wells using the PlateMate Plus.
(ThermoFisher) (except those wells in columns 23 and 24) • 4. 5 μL of assay media was added to all wells in column 23 and 24. • 5. Plates were incubated 6 hrs at 37° C., 5% CO2. • 6. 15 μL 3× DiscoveRx detection reagent was added to each well. • 7. Plates were incubated for 1 hour at room temperature (plates stored in the dark). • 8. Plates were read on Envision (PerkinElmer) luminesence plate reader and analyzed using ADA.
In general, IC50 refers to the concentration needed to halve the response being measured. `C[C@H](C1CCCCC1)N1C(=O)O[C@](Cc2ccccc2)(c2nc3ccc(Cl)cc3[nH]2)C1=O` [Compound 12, (5R)-5-Benzyl-5-(5-chloro-1H-benzimidazol-2-yl)-3-[(1R)-1-cyclohexylethyl]-1,3-oxazolidine-2,4-dione]: the IC50 is less than 100 nM.
As to `Cc1noc(C)c1-c1ccc2[nH]c([C@@]3(Cc4ccccc4)OC(=O)N([C@H](C)c4ccc(F)cc4)C3=O)nc2c1` [Compound 23, (5R)-5-Benzyl-5-[5-(3,5-dimethylisoxazol-4-yl)-1H-benzimidazol-2-yl]-3-[(1R)-1-(4-fluorophenyl)ethyl]-1,3-oxazolidine-2,4-dione], the IC50 was less than 100 nM.
The result for `C[C@H](c1ccc(F)cc1)N1C(=O)O[C@](Cc2ccccc2)(c2nc3cc(OC(F)(F)F)ccc3[nH]2)C1=O` [Compound 4, (5R)-5-Benzyl-3-[(1R)-1-(4-fluorophenyl)ethyl]-5-[5-(trifluoromethoxy)-1H-benzimidazol-2-yl]-1,3-oxazolidine-2,4-dione] reads 100 to 500 nM; that for `C[C@H](c1ccc(F)cc1)N1C(=O)O[C@](Cc2ccccc2)(c2nc3c(-c4ccnn4C)cccc3[nH]2)C1=O` [Compound 32, (5R)-5-Benzyl-3-[(1R)-1-(4-fluorophenyl)ethyl]-5-[4-(1-methyl-1H-pyrazol-5-yl)-1H-benzimidazol-2-yl]-1,3-oxazolidine-2,4-dione], 100 to 500 nM; that for `C[C@H](c1ccc(F)cc1)N1C(=O)O[C@](Cc2ccccc2)(c2nc3ccc(CN4CCOCC4)cc3[nH]2)C1=O` [Compound 10, (5R)-5-Benzyl-3-[(1R)-1-(4-fluorophenyl)ethyl]-5-[5-(morpholinylmethyl)-1H-benzimidazol-2-yl]-1,3-oxazolidine-2,4-dione], 100 to 500 nM.
With `CC(C1CCC(F)(F)CC1)N1C(=O)O[C@](Cc2ccccc2)(c2nc3ccc(Cl)cc3[nH]2)C1=O` (stereo partly drawn) [Compound 11, (5R)-5-Benzyl-5-(6-chloro-1H-benzimidazol-2-yl)-3-[1-(4,4-difluorocyclohexyl)ethyl]-1,3-oxazolidine-2,4-dione] the figure was less than 100 nM; with `C[C@H](c1ccc(F)cc1)N1C(=O)O[C@](Cc2ccccc2)(c2nc3cc(-c4cccnc4)ccc3[nH]2)C1=O` [Compound 25, (5R)-5-Benzyl-3-[(1R)-1-(4-fluorophenyl)ethyl]-5-(5-pyridin-3-yl-1H-benzimidazol-2-yl)-1,3-oxazolidine-2,4-dione], less than 100 nM; with `C[C@H](c1ccc(F)cc1)N1C(=O)O[C@](Cc2ccccc2)(c2nc3cc(F)ccc3[nH]2)C1=O` [Compound 2, (5R)-5-Benzyl-5-(5-fluoro-1H-benzimidazol-2-yl)-3-[(1R)-1-(4-fluorophenyl)ethyl]-1,3-oxazolidine-2,4-dione], 100 to 500 nM.
`C[C@H](c1ccc(F)cc1)N1C(=O)O[C@](Cc2ccccc2)(c2nc3cc(-c4cncc(F)c4)ccc3[nH]2)C1=O` [Compound 28, (5R)-5-Benzyl-3-[(1R)-1-(4-fluorophenyl)ethyl]-5-[5-(5-fluoro-pyridin-3-yl)-1H-benzimidazol-2-yl]-1,3-oxazolidine-2,4-dione]: the IC50 was less than 100 nM.
The result for `C[C@H](c1ccc(F)cc1)N1C(=O)O[C@](Cc2ccccc2)(c2nc3c(-c4cncnc4)cccc3[nH]2)C1=O` [Compound 35, (5R)-5-Benzyl-3-[(1R)-1-(4-fluorophenyl)ethyl]-5-(4-pyrimidin-5-yl-1H-benzimidazol-2-yl)-1,3-oxazolidine-2,4-dione] reads 100 to 500 nM; that for `C[C@H](c1ccc(F)cc1)N1C(=O)O[C@](Cc2ccccc2)(c2nc3cc(-c4cnn(C)c4)ccc3[nH]2)C1=O` [Compound 24, (5R)-5-Benzyl-3-[(1R)-1-(4-fluorophenyl)ethyl]-5-[5-(1-methyl-1H-pyrazol-4-yl)-1H-benzimidazol-2-yl]-1,3-oxazolidine-2,4-dione], less than 100 nM; that for `C[C@H](c1ccc(F)cc1)N1C(=O)O[C@](Cc2ccccc2)(c2nc3c(-c4cccnc4)cccc3[nH]2)C1=O` [Compound 36, (5R)-5-Benzyl-3-[(1R)-1-(4-fluorophenyl)ethyl]-5-(4-pyridin-3-yl-1H-benzimidazol-2-yl)-1,3-oxazolidine-2,4-dione], 100 to 500 nM.
In the case of `CNC(=O)c1ccc2[nH]c([C@@]3(Cc4ccccc4)OC(=O)N([C@H](C)c4ccc(F)cc4)C3=O)nc2c1` [Compound 21, Methyl 2-{(5R)-5-benzyl-3-[(1R)-1-(4-fluorophenyl)ethyl]-2,4-dioxo-1,3-oxazolidin-5-yl}-1H-benzimidazole-5-carboxamide], the half-maximal inhibitory concentration (IC50) is 100 to 500 nM.
As to `C[C@H](c1ccc(F)cc1)N1C(=O)O[C@](Cc2ccccc2)(c2nc3c(-c4cnoc4)cccc3[nH]2)C1=O` [Compound 30, (5R)-5-Benzyl-3-[(1R)-1-(4-fluorophenyl)ethyl]-5-(4-isoxazol-4-yl-1H-benzimidazol-2-yl)-1,3-oxazolidine-2,4-dione], the IC50 lay within 500 to 2000 nM.
The result for `C[C@H](c1ccc(F)cc1)N1C(=O)O[C@](Cc2ccccc2)(c2nc3cc(N4CCOCC4)ccc3[nH]2)C1=O` [Compound 9, (5R)-5-Benzyl-3-[(1R)-1-(4-fluorophenyl)ethyl]-5-(5-morpholin-4-yl-1H-benzimidazol-2-yl)-1,3-oxazolidine-2,4-dione] reads less than 100 nM; that for `C[C@H](c1ccc(F)cc1)N1C(=O)O[C@](Cc2ccccc2)(c2nc3cc(-c4cn[nH]c4)ccc3[nH]2)C1=O` [Compound 26, (5R)-5-Benzyl-3-[(1R)-1-(4-fluorophenyl)ethyl]-5-[5-(1H-pyrazol-4-yl)-1H-benzimidazol-2-yl]-1,3-oxazolidine-2,4-dione], less than 100 nM.
